Legend:
Carboplatin = compound: C1CC(C1)(C(=O)[O-])C(=O)[O-].N.N.[Pt+2] [Carboplatin]; details: max 10 µM
Method in brief: (§1)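 Cancer cell lines were seeded into 1536-well plates in 7.5 μl medium (DMEM/F12 or RPMI, 10% FBS), held 24 hours at 37°C and 5% CO2, and dosed for 72 hours with final DMSO typically 0.2%. Luminescence from CellTiter-Glo 2.0, scaled between blank-well and DMSO-well means, served as viability. The single-agent IC50 was obtained from dose-response fits with a non-linear mixed effects model, each fit being a two-parameter logistic curve.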

AZD5363 = compound: C1CN(CCC1(C(=O)N[C@@H](CCO)C2=CC=C(C=C2)Cl)N)C3=NC=NC4=C3C=CN4 [AZD5363]; details: max 10 µM
Method in brief: as §1

AZD1775 = compound: C=CCn1c(=O)c2cnc(Nc3ccc(N4CCN(C)CC4)cc3)nc2n1-c1cccc(C(C)(C)O)n1 [AZD1775]; details: max 3 µM
Method in brief: as §1

Trametinib = compound: CC(=O)Nc1cccc(-n2c(=O)n(C3CC3)c(=O)c3c(Nc4ccc(I)cc4F)n(C)c(=O)c(C)c32)c1 [Trametinib]; details: max 1 µM
Method in brief: as §1

Paclitaxel = compound: CC(=O)O[C@H]1C(=O)[C@@]2(C)[C@H]([C@H](OC(=O)c3ccccc3)[C@]3(O)C[C@H](OC(=O)[C@H](O)[C@@H](NC(=O)c4ccccc4)c4ccccc4)C(C)=C1C3(C)C)[C@]1(OC(C)=O)CO[C@@H]1C[C@@H]2O [Paclitaxel]; details: max 3 µM
Method in brief: as §1

Palbociclib = compound: CC(=O)c1c(C)c2cnc(Nc3ccc(N4CCNCC4)cn3)nc2n(C2CCCC2)c1=O [Palbociclib]; details: max 10 µM
Method in brief: as §1

AZD1390 = compound: CC(C)n1c(=O)n(C)c2cnc3cc(F)c(-c4ccc(OCCCN5CCCCC5)nc4)cc3c21 [AZD1390]; details: max 0.3 µM
Method in brief: as §1

Venetoclax = compound: CC1(C)CCC(CN2CCN(c3ccc(C(=O)NS(=O)(=O)c4ccc(NCC5CCOCC5)c([N+](=O)[O-])c4)c(Oc4cnc5[nH]ccc5c4)c3)CC2)=C(c2ccc(Cl)cc2)C1 [Venetoclax]; details: max 1 µM
Method in brief: as §1

Dasatinib = compound: CC1=C(C(=CC=C1)Cl)NC(=O)C2=CN=C(S2)NC3=CC(=NC(=N3)C)N4CCN(CC4)CCO [Dasatinib]; details: max 2 µM
Method in brief: as §1

SG3199 = compound: CC1=CN2[C@@H](C1)C=NC3=CC(=C(C=C3C2=O)OC)OCCCCCOC4=C(C=C5C(=C4)N=C[C@@H]6CC(=CN6C5=O)C)OC [SG3199]; details: max 0.001 µM
Method in brief: as §1

AZD2811 = compound: CCN(CCO)CCCOc1ccc2c(Nc3cc(CC(=O)Nc4cccc(F)c4)[nH]n3)ncnc2c1 [AZD2811]; details: max 1 µM
Method in brief: as §1

SN-38 = compound: CCc1c2c(nc3ccc(O)cc13)-c1cc3c(c(=O)n1C2)COC(=O)[C@]3(O)CC [SN-38]; details: max 0.3 µM
Method in brief: as §1

AZD0156 = compound: CN(C)CCCOc1ccc(-c2ccc3ncc4c(c3c2)n(C2CCOCC2)c(=O)n4C)cn1 [AZD0156]; details: max 3 µM
Method in brief: as §1

AZD4320 = compound: CN(CC[C@H](CSC1=CC=CC=C1)NC2=C(C=C(C=C2)S(=O)(=O)NC(=O)C3=CC=C(C=C3)N4CCC(CC4)[C@H](C5=CC=CC=C5C6=CC=C(C=C6)Cl)O)S(=O)(=O)C(F)(F)F)CCO [AZD4320]; details: max 1 µM
Method in brief: as §1

Alisertib = compound: COc1cc(Nc2ncc3c(n2)-c2ccc(Cl)cc2C(c2c(F)cccc2OC)=NC3)ccc1C(=O)O [Alisertib]; details: max 10 µM
Method in brief: as §1

Etoposide = compound: COc1cc([C@@H]2c3cc4c(cc3[C@@H](O[C@@H]3O[C@@H]5CO[C@@H](C)O[C@H]5[C@H](O)[C@H]3O)[C@H]3COC(=O)[C@H]23)OCO4)cc(OC)c1O [Etoposide]; details: max 10 µM
Method in brief: as §1

Gefitinib = compound: COc1cc2ncnc(Nc3ccc(F)c(Cl)c3)c2cc1OCCCN1CCOCC1 [Gefitinib]; details: max 10 µM
Method in brief: as §1

Prexasertib = compound: COc1cccc(OCCCN)c1-c1cc(Nc2cnc(C#N)cn2)n[nH]1 [Prexasertib]; details: max 1 µM
Method in brief: as §1

Doxorubicin = compound: COc1cccc2c1C(=O)c1c(O)c3c(c(O)c1C2=O)C[C@@](O)(C(=O)CO)C[C@@H]3O[C@H]1C[C@H](N)[C@H](O)[C@H](C)O1 [Doxorubicin]; details: max 1 µM
Method in brief: as §1

AZD5153 = compound: COc1nnc2ccc(N3CCC(c4ccc(OCCN5CCN(C)C(=O)[C@H]5C)cc4)CC3)nn12 [AZD5153]; details: max 1 µM
Method in brief: as §1

Lapatinib = compound: CS(=O)(=O)CCNCc1ccc(-c2ccc3ncnc(Nc4ccc(OCc5cccc(F)c5)c(Cl)c4)c3c2)o1 [Lapatinib]; details: max 10 µM
Method in brief: as §1

AZD8186 = compound: C[C@@H](Nc1cc(F)cc(F)c1)c1cc(C(=O)N(C)C)cc2c(=O)cc(N3CCOCC3)oc12 [AZD8186]; details: max 10 µM
Method in brief: as §1

Crizotinib = compound: C[C@@H](Oc1cc(-c2cnn(C3CCNCC3)c2)cnc1N)c1c(Cl)ccc(F)c1Cl [Crizotinib]; details: max 10 µM
Method in brief: as §1

Savolitinib = compound: C[C@@H](c1ccc2nccn2c1)n1nnc2ncc(-c3cnn(C)c3)nc21 [Savolitinib]; details: max 1 µM
Method in brief: as §1

AZD6738 = compound: C[C@@H]1COCCN1C2=NC(=NC(=C2)C3(CC3)[S@](=N)(=O)C)C4=C5C=CNC5=NC=C4 [AZD6738]; details: max 10 µM
Method in brief: as §1

AZD5991 = compound: Cc1c2c(nn1C)CSCc1cc(n(C)n1)CSc1cc(c3ccccc3c1)OCCCc1c(C(=O)O)n(C)c3c-2c(Cl)ccc13 [AZD5991]; details: max 1 µM
Method in brief: as §1

AZD7648 = compound: Cc1cc2ncnn2cc1Nc1ncc2c(n1)n(C1CCOCC1)c(=O)n2C [AZD7648]; details: max 10 µM
Method in brief: as §1

Taselisib = compound: Cc1nc(-c2cn3c(n2)-c2ccc(-c4cnn(C(C)(C)C(N)=O)c4)cc2OCC3)n(C(C)C)n1 [Taselisib]; details: max 10 µM
Method in brief: as §1

Selumetinib = compound: Cn1cnc2c(F)c(Nc3ccc(Br)cc3Cl)c(C(=O)NOCCO)cc21 [Selumetinib]; details: max 10 µM
Method in brief: as §1

SRA737 = compound: N#Cc1cnc(Nc2cc(NC[C@H]3CNCCO3)c(C(F)(F)F)cn2)cn1 [SRA737]; details: max 10 µM
Method in brief: as §1

MK-2206 = compound: NC1(c2ccc(-c3nc4ccn5c(=O)[nH]nc5c4cc3-c3ccccc3)cc2)CCC1 [MK-2206]; details: max 10 µM
Method in brief: as §1

Gemcitabine = compound: Nc1ccn([C@@H]2O[C@H](CO)[C@@H](O)C2(F)F)c(=O)n1 [Gemcitabine]; details: max 0.3 µM
Method in brief: as §1

[1] = compound: O=C(Nc1ccc2[nH]nc(-c3ccncc3)c2c1)[C@@H]1CCN(CC(=O)N2CCN(c3ccc(-c4ncccn4)cc3)CC2)C1; details: max 5 µM
Method in brief: as §1

Olaparib = compound: O=C(c1cc(Cc2n[nH]c(=O)c3ccccc23)ccc1F)N1CCN(C(=O)C2CC2)CC1 [Olaparib]; details: max 10 µM
Method in brief: as §1

5-Fluorouracil = compound: O=c1[nH]cc(F)c(=O)[nH]1 [5-Fluorouracil]; details: max 20 µM
Method in brief: as §1

| Cell Line | IC50, cell viability 72 h (Carboplatin) | IC50, cell viability 72 h (AZD5363) | IC50, cell viability 72 h (AZD1775) | IC50, cell viability 72 h (Trametinib) | IC50, cell viability 72 h (Paclitaxel) | IC50, cell viability 72 h (Palbociclib) | IC50, cell viability 72 h (AZD1390) | IC50, cell viability 72 h (Venetoclax) | IC50, cell viability 72 h (Dasatinib) | IC50, cell viability 72 h (SG3199) | IC50, cell viability 72 h (AZD2811) | IC50, cell viability 72 h (SN-38) | IC50, cell viability 72 h (AZD0156) | IC50, cell viability 72 h (AZD4320) | IC50, cell viability 72 h (Alisertib) | IC50, cell viability 72 h (Etoposide) | IC50, cell viability 72 h (Gefitinib) | IC50, cell viability 72 h (Prexasertib) | IC50, cell viability 72 h (Doxorubicin) | IC50, cell viability 72 h (AZD5153) | IC50, cell viability 72 h (Lapatinib) | IC50, cell viability 72 h (AZD8186) | IC50, cell viability 72 h (Crizotinib) | IC50, cell viability 72 h (Savolitinib) | IC50, cell viability 72 h (AZD6738) | IC50, cell viability 72 h (AZD5991) | IC50, cell viability 72 h (AZD7648) | IC50, cell viability 72 h (Taselisib) | IC50, cell viability 72 h (Selumetinib) | IC50, cell viability 72 h (SRA737) | IC50, cell viability 72 h (MK-2206) | IC50, cell viability 72 h (Gemcitabine) | IC50, cell viability 72 h [1] | IC50, cell viability 72 h (Olaparib) | IC50, cell viability 72 h (5-Fluorouracil) |
| --- | --- | --- | --- | --- | --- | --- | --- | --- | --- | --- | --- | --- | --- | --- | --- | --- | --- | --- | --- | --- | --- | --- | --- | --- | --- | --- | --- | --- | --- | --- | --- | --- | --- | --- | --- |
| BICR22 (Oral Cavity Carcinoma) | > 10000 nM | > 10000 nM | 1850 nM | > 1000 nM | < 3 nM | > 10000 nM | > 300 nM | > 1000 nM | > 2000 nM | > 1 nM | > 1000 nM | 6.59 nM | > 3000 nM | > 1000 nM | 6990 nM | 3150 nM | > 10000 nM | 54.5 nM | 158 nM | > 1000 nM | > 10000 nM | > 10000 nM | > 10000 nM | > 1000 nM | 3410 nM | > 1000 nM | > 10000 nM | 928 nM | > 10000 nM | > 10000 nM | > 10000 nM | 12.1 nM | > 5000 nM | > 10000 nM | 1850 nM |
| CAPAN-2 (Pancreatic Carcinoma) | > 10000 nM | > 10000 nM | 2700 nM | > 1000 nM | > 3000 nM | > 10000 nM | > 300 nM | > 1000 nM | 210 nM | > 1 nM | > 1000 nM | > 300 nM | > 3000 nM | > 1000 nM | > 10000 nM | > 10000 nM | > 10000 nM | 646 nM | > 1000 nM | > 1000 nM | > 10000 nM | > 10000 nM | > 10000 nM | > 1000 nM | > 10000 nM | > 1000 nM | > 10000 nM | > 10000 nM | > 10000 nM | > 10000 nM | > 10000 nM | > 300 nM | > 5000 nM | > 10000 nM | > 20000 nM |
| CCK-81 (Colorectal Carcinoma) | > 10000 nM | > 10000 nM | 661 nM | 208 nM | 101 nM | > 10000 nM | > 300 nM | > 1000 nM | > 2000 nM | > 1 nM | > 1000 nM | 76.7 nM | > 3000 nM | > 1000 nM | > 10000 nM | > 10000 nM | 997 nM | 10.7 nM | > 1000 nM | 160 nM | 484 nM | > 10000 nM | 8320 nM | > 1000 nM | 1570 nM | 634 nM | > 10000 nM | 1180 nM | 9240 nM | 876 nM | > 10000 nM | 50.3 nM | 4810 nM | > 10000 nM | 7320 nM |
| COLO-320-HSR (Colorectal Carcinoma) | > 10000 nM | > 10000 nM | 459 nM | > 1000 nM | 411 nM | > 10000 nM | > 300 nM | > 1000 nM | > 2000 nM | > 1 nM | > 1000 nM | > 300 nM | > 3000 nM | > 1000 nM | > 10000 nM | > 10000 nM | > 10000 nM | 232 nM | > 1000 nM | > 1000 nM | > 10000 nM | > 10000 nM | > 10000 nM | > 1000 nM | 7940 nM | 489 nM | > 10000 nM | > 10000 nM | > 10000 nM | > 10000 nM | > 10000 nM | 260 nM | > 5000 nM | > 10000 nM | > 20000 nM |
| ECC10 (Gastric Carcinoma) | > 10000 nM | > 10000 nM | 1130 nM | 237 nM | 10.9 nM | > 10000 nM | > 300 nM | 230 nM | > 2000 nM | > 1 nM | 25.2 nM | 7.73 nM | > 3000 nM | 21.8 nM | 200 nM | 1860 nM | > 10000 nM | 324 nM | 131 nM | 139 nM | 6710 nM | > 10000 nM | 4920 nM | > 1000 nM | > 10000 nM | 713 nM | > 10000 nM | > 10000 nM | > 10000 nM | > 10000 nM | > 10000 nM | 50 nM | 375 nM | > 10000 nM | > 20000 nM |
